Test results: US20120201908A1, “METHOD OF TREATING BIPOLAR DISORDER OR DEPRESSION USING AN ANTIESTROGEN” (Lunera Equities, LLLP, priority 2009, published 2012)
“Also recorded” adds a separate entry of the source. Where a name gives a salt, the structure may show the parent alone. Read-outs that look alike come from different tables or passages of the source.

Key:
[1] = test system: symptoms of bipolar disorder; assay: Pilot study Subject E: tamoxifen citrate added to bipolar medication, mood charts and psychiatrist visits; type: in vivo, human
Source text: Subject E is a person and an insulin dependent diabetic. Subject E was diagnosed with bipolar disorder at […]. They have had surgery in the past for their knees, their neck and stitches for their head. Subject E has been institutionalized multiple times within the last nine years for their own protection. To date, no medications have seemed to help. Subject also has a history of alcoholism. Some complexity was expected in treatment due to diabetes.

[2] = test system: symptoms of bipolar disorder (bipolar I); assay: Pilot study Subject D: tamoxifen citrate added to bipolar medication, mood charts and psychiatrist visits; type: in vivo, human
Source text: Subject D is a person with a family history of bipolar disorder. Although Subject D had symptoms spanning Asperger's Syndrome, Bipolar I, Obsessive-Compulsive Disorder, Oppositional Defiant Disorder and anti-social traits, bipolar I was the diagnosis for several reasons, including the fact that it was present on both sides of the family and the symptoms were better suited to a bipolar diagnosis.
First visit: Day 1. Due to Subject D's extreme condition, past hospitalizations and the complicated mixture of medications, the psychiatrist spent approximately one hour with the subject. […] Subject D was also given a copy of the Gary Sach's Mood Chart for the subject and their parent to be filled out daily for the psychiatrist's weekly review.

[3] = test system: symptoms of bipolar disorder (bipolar disorder II); assay: Case report Subject B: antiestrogen to treat symptoms of bipolar disorder; type: in vivo, human
Method: Subject B is a person in good general physical health with a family history of bipolar disorder. Subject B underwent Cholecystectomy. Subject B was diagnosed with Meniere's Syndrome. Subject B was diagnosed with bipolar disorder II, at which time Lamictal was prescribed by a psychiatrist. […] The psychiatrist then prescribed Effexor XR® (venlafaxine hydrochloride) 75 mg/daily. […] A general physician prescribed 1.5 mg/Klonopin® (Clonazepam) daily.
Subject B also remained mentally alert and stable. […] Currently, Subject B remains stable and emotionally level.
Subject B's spouse states that Subject B is much more level, enjoys their life to a new degree, no longer loses control or becomes violent without warning. The entire family feels that life is much easier since Subject B began taking the antiestrogen.

[4] = test system: symptoms of acute/severe depression; assay: Case report Subject C: antiestrogen in descending daily dosing to treat acute/severe depression; type: in vivo, human; conditions: for time to lessening of symptoms of depression after the first dose: single dose on day one: tamoxifen citrate 20 mg or Arimidex 1 mg; for symptoms of depression after the descending dose course: tamoxifen citrate 20/10/5/2.5/2.5 mg days 1-5, Arimidex 1/0.5/0.25/0.25 mg days 1-4
Source text: Subject C is a person in good general physical health with no previous history of mental illness or depression. Subject C was prescribed Dapsone as a child in order to treat to treat dermititis herpetiformis. Subject C received no medication in the past four years. In December 2008, Subject C became lethargic, uninterested in usually pleasurable activities, restless, and began oversleeping. After a full month, symptoms of depression became extreme and subject C was thought to be in danger of becoming suicidal.
Subject C's last dose was 2.5 mg on the fifth day.
Suicidal thoughts returned and Subject C considered dropping out of law school. Subject C started a descending dose course of Arimidex®; starting with a single dose of 1 mg on day one. Again, symptoms of depression faded noticeably within 8 hours, in a manner similar to that in response to treatment with tamoxifen. Subject C took single daily doses of Arimidex®; 0.5 mg on day two; 0.25 mg each on days three and four.

[5] = test system: symptoms of bipolar disorder (bipolar disorder I); assay: Case report Subject A: antiestrogen to treat symptoms of bipolar disorder; conditions: for mood swings with the antiestrogen as only bipolar medication: tamoxifen citrate 20 mg base equivalents or Arimidex 1 mg, once every day or every other day; for effect of earlier medication on bipolar mood swings / side effects / reason for discontinuation of earlier medication: medication history before the antiestrogen
Method: (§1) The following list describes the drugs that were tried in combination with Eskalith: • 1. Depakote® (Divalproex Sodium Delayed Release Tablets) 50 mg daily. […] Tegretol XR® (Carbamazepine) 200 mg twice daily. […] Risperdal® (Risperidone) 3 mg per day. […] Prozac® (Olanzapine and Fluoxetine hydrochloride) 20 mg twice daily. […] Klonopin® (Clonazepam): originally from 2002 to 2009 was 8 mg to 10 mg daily for generalized anxiety. […] Lamictal® (Lamotrigine) Titration schedule over five weeks up to 250 mg twice daily.

[6] = test system: symptoms of bipolar disorder (bipolar disorder I); conditions: human, in vivo
Method: as §1

[7] = test system: protein kinase C alpha and epsilon isozymes; conditions: rat frontal cortex and hippocampus; Manji et al. 1999; cited from earlier work
[8] = in vivo; cited from earlier work
[9] = test system: symptoms of bipolar disorder; conditions: Subject F; for onset of noticed difference: tamoxifen citrate 20 mg qd
Source text: In a preferred aspect, the patient fills out the mood chart on a regular basis and a family member, friend, roommate or clinical or institutional staff member who interacts with the patient on a regular basis, also records a parallel mood chart on a regular basis. […] In another aspect, a mood chart is started at the start of treatment with an antiestrogen.
Subject F is a person who experienced a coronary three years prior to starting the study that their doctors blamed on stimulants used for ADD. Subject F had stents placed following the coronary. […] They maintain a job where they can do much of the work from home. It has been over a year since they were so severe they could not get out of bed or work. They have not had any extreme episodes in the immediate past. Subject F is nearsighted and has high blood pressure.

[10] = test system: mania in patients with bipolar disorder; conditions: Yildiz et al. 2008; cited from earlier work

## O=C1CCc2ccc(OCCCCN3CCN(c4cccc(Cl)c4Cl)CC3)cc2N1 [Abilify, Aripiprazole]
[1]; Day 27, Abilify 5 mg qd not taken for 7 days
  mood after self-discontinuing Abilify: experienced some depression and mild anxiety and irritability
[1]; Day 34, Abilify 5 mg qd
  mood after resuming Abilify: much better week

## CC1=C(/C=C/C(C)=C/C=C/C(C)=C\C(=O)O)C(C)(C)CCC1 [Accutane]
[2]; Day 95, Accutane 30 mg qd with tamoxifen citrate 30 mg qd
  depression under Accutane: still shows no signs of depression

## Cc1ccc(-c2nc3ccc(C)cn3c2CC(=O)N(C)C)cc1 [Ambien]
[2]; Day 95, Ambien sample for trial
  sleep: helped their sleeping

## CC(C)(C#N)c1cc(Cn2cncn2)cc(C(C)(C)C#N)c1 [Arimidex, anastrozole]
[3]; Arimidex 0.25-1 mg used interchangeably with tamoxifen citrate 10 mg every other day
  response when Arimidex replaces tamoxifen citrate: without change in response; also recorded: work equally as well
[4]
  symptom-free period after the course: After five months, Subject C remains free of symptoms of depression
  time to lessening of symptoms of depression after the first dose: ≤ 8 h
  symptoms of depression after the descending dose course: Symptoms of depression were substantially alleviated after day four
[5]; Arimidex 1 mg once a day, within a week of starting
  severity of bipolar episodes and symptoms: episodes and symptoms became less severe
[5]
  mood swings with the antiestrogen as only bipolar medication: controls mood swings without the concurrent use of other bipolar medication; also recorded: mood swings became virtually non-existent
[5]; while taking Arimidex 1 mg once a day
  frequency of bipolar cycles: cycles were less frequent

## CCCC(CCC)C(=O)O [Depakote, Divalproex Sodium]
[6]
  side effects / reason for discontinuation of earlier medication: heavy side effects
[7]
  protein kinase C alpha and epsilon isozymes: reduction in protein kinase C alpha and epsilon isozymes

## COc1ccc(C(CN(C)C)C2(O)CCCCC2)cc1 (stereo not shown) [Effexor XR, venlafaxine hydrochloride]
[3]; Lamictal 10-12 weeks, Effexor XR 75 mg/daily for three days
  side effects / reason for discontinuation of earlier medication: lack of sleep, extreme mania, high anxiety and hyperactivity

## O=C([O-])[O-].[Li+].[Li+] [Eskalith, Lithium Carbonate]
[7]
  protein kinase C alpha and epsilon isozymes: reduction in protein kinase C alpha and epsilon isozymes
[5]
  effect of earlier medication on bipolar mood swings: slowed the swings, but did not change the severity of either the depressive or manic episodes
  side effects / reason for discontinuation of earlier medication: damage to the thyroid

## CN(C)CCCN1c2ccccc2CCc2ccccc21 [Imipramine hydrochloride]
[6]
  side effects / reason for discontinuation of earlier medication: extreme hand tremors
[5]
  effect of earlier medication on bipolar mood swings: continued to have bipolar swings

## Nc1nnc(-c2cccc(Cl)c2Cl)c(N)n1 [Lamictal, Lamotrigine]
[6]
  side effects / reason for discontinuation of earlier medication: worsening skin condition; aggravated linear IgA dermatosis
[8]
  patients who develop a rash: 5-10%
[5]
  effect of earlier medication on bipolar mood swings: Mood swings were more frequent without Lamictal

## CCCCCCCCCC(=O)O[C@H]1CC[C@H]2[C@@H]3CCC4=CC(=O)CC[C@@H]4[C@H]3CC[C@]12C [Nandrolone deconate]
[5]
  side effects / reason for discontinuation of earlier medication: Erythrocytosis

## C[C@]12C=CC(=O)C=C1CC[C@@H]1[C@@H]2C(=O)C[C@@]2(C)[C@H]1CC[C@]2(O)C(=O)CO [Prednisone]
[6]
  side effects / reason for discontinuation of earlier medication: made all physical and mental conditions worse

## Cc1nc2n(c(=O)c1CCN1CCC(c3noc4cc(F)ccc34)CC1)CCCC2 [Risperdal, Risperidone]
[6]
  side effects / reason for discontinuation of earlier medication: inability to work or function to a satisfactory level

## OCCOCCN1CCN(C2=Nc3ccccc3Sc3ccccc32)CC1 [Seroquel, quetiapine fumarate]
[6]
  side effects / reason for discontinuation of earlier medication: extreme tiredness and inability to function

## CC/C(=C(\c1ccccc1)c1ccc(OCCN(C)C)cc1)c1ccccc1.O=C(O)CC(O)(CC(=O)O)C(=O)O [Tamoxifen citrate, (Z)2-[4-(1,2-diphenyl-1-butenyl)phenoxy]-N,N-dimethylethanamine 2-hydroxy-1,2,3-propanetricarboxylate (1:1)]
[3]
  time remained stable since beginning treatment: approximately 18 months
[3]; tamoxifen citrate 10 mg or 20 mg base equivalents taken regularly as only mood-stabilizing medication
  bipolar symptoms: no longer has bipolar symptoms
[3]; tamoxifen citrate 20 mg base equivalents daily for two weeks
  mood stability: increased mood stability and overall feeling of well being
[9]; Day 13, tamoxifen citrate 20 mg qd, Strattera not taken
  anger: felt less angry even without taking the Strattera
[9]; Day 52, Lamictal lowered to 100 mg qd
  subject's report to study coordinator: noticing the ability to sense their moods better
[9]; Day 70, dose forgotten the day before
  mood after a forgotten dose: felt more depressed than any day since they started the program
[9]; Day 77
  out of control spending: they have not had this problem since they went on the Tamoxifen
[9]; Day 84
  outbursts: one outburst with their spouse, the first since starting Tamoxifen
[9]; listed as Tamoxifen
  onset of noticed difference: positive difference around four days after starting
[9]; listed as tamoxifen citrate
  onset of noticed difference: noticed a difference within three or four days
[9]; to Day 98, since starting Tamoxifen Citrate
  moods, spending, anger (synopsis): their moods have been level, their normally “out of control spending” was no longer a problem and their anger and problems with spouse have all but vanished
[9]; to Day 98, tamoxifen 20 mg daily
  reduction of concurrent bipolar medication: Lamictal was able to be discontinued, and Strattera was able to remain discontinued with mood stabilization
[1]; Day 34, tamoxifen citrate 20 mg qd, other drugs cut in dose, listed as tamoxifen
  response to treatment: responded well
[1]; to Day 148, tamoxifen 20 mg daily
  reduction of concurrent bipolar medication: Topamax and Fluoxetine were able to be discontinued, and the dose of Abilify was significantly reduced
[10]
  treatment of mania: effective in treatment of mania in patients with bipolar disorder
[4]
  symptom-free period after the course: three months with no symptoms of depression
  time to lessening of symptoms of depression after the first dose: within the first eight hours
  symptoms of depression after the descending dose course: Symptoms of depression were alleviated
[5]
  mood swings with the antiestrogen as only bipolar medication: controls mood swings without the concurrent use of other bipolar medication
[5]; listed as tamoxifen citrate
  mood swings with the antiestrogen as only bipolar medication: mood swings became virtually non-existent
[2]; Day 9, tamoxifen citrate 20 mg qd
  mood and energy as told to the psychiatrist: happier than they have been in a long time and has more energy
[2]; tamoxifen citrate 20 mg qd added to Lithium ER, Depakote ER, Risperidone, Geodon
  onset of feeling more balanced: began feeling more balanced after only four days
[2]; to Day 153, tamoxifen 20-30 mg daily
  reduction of concurrent bipolar medication: the doses of Depakote ER, Risperidone and Geodon were each able to be significantly reduced and Lithium was able to be discontinued

## NC(=O)N1c2ccccc2C=Cc2ccccc21 [Tegretol XR, Carbamazepine]
[6]
  side effects / reason for discontinuation of earlier medication: hand and body tremors, as well as slurring of speech and numb feeling tongue
[5]
  effect of earlier medication on bipolar mood swings: Worked for a few weeks

## CC(NC(C)(C)C)C(=O)c1cccc(Cl)c1 (stereo not shown) [Wellbutrin, bupropion hydrochloride]
[6]
  side effects / reason for discontinuation of earlier medication: dulled their mind and slowed their thinking
